Assay results published in article PMC5218480 (PLoS ONE, 2017).

Test system: MV-4-11 cells
Test: Gene expression microarray analysis (Affymetrix PrimeView) and GSEA
Type: cell-based, human
Parameters: RFU PODN (11730768_x_at) / Fold change /veh PODN (11730768_x_at) / RFU LINC00158 (11744669_a_at) / Fold change /veh LINC00158 (11744669_a_at) / RFU DUSP10 (11751237_a_at) / Fold change /veh DUSP10 (11751237_a_at) / RFU ID3 (11757404_x_at) / Fold change /veh ID3 (11757404_x_at) / RFU PLEKHG5 (11737974_s_at) / Fold change /veh PLEKHG5 (11737974_s_at) / RFU LRRC4B (11730491_at) / Fold change /veh LRRC4B (11730491_at) / RFU GIMAP4 (11747438_a_at) / Fold change /veh GIMAP4 (11747438_a_at) / RFU KRT8 (11758183_x_at) / Fold change /veh KRT8 (11758183_x_at) / RFU CNN1 (11734310_a_at) / Fold change /veh CNN1 (11734310_a_at) / RFU VPS37D (11726825_at) / Fold change /veh VPS37D (11726825_at) / RFU C10orf10 (11716522_x_at) / Fold change /veh C10orf10 (11716522_x_at) / RFU KIR2DL2 /// KIR2DL4 /// KIR2DL5A /// KIR2DL5B /// KIR2DS1 /// KIR2DS2 /// KIR2DS3 /// KIR2DS4 /// KIR3DL3 /// KIR3DL3 /// KIR3DS1 (11738374_at) / Fold change /veh KIR2DL2 /// KIR2DL4 /// KIR2DL5A /// KIR2DL5B /// KIR2DS1 /// KIR2DS2 /// KIR2DS3 /// KIR2DS4 /// KIR3DL3 /// KIR3DL3 /// KIR3DS1 (11738374_at) / RFU C1QL1 (11718748_at) / Fold change /veh C1QL1 (11718748_at) / RFU TMPRSS4 (11747572_a_at) / Fold change /veh TMPRSS4 (11747572_a_at) / RFU HAMP (11756126_x_at) / Fold change /veh HAMP (11756126_x_at) / RFU RNFT2 (11725882_a_at) / Fold change /veh RNFT2 (11725882_a_at) / RFU NR4A2 (11747474_a_at) / Fold change /veh NR4A2 (11747474_a_at) / RFU ABCC12 (11746883_a_at) / Fold change /veh ABCC12 (11746883_a_at) / RFU TMEM136 (11760407_x_at) / Fold change /veh TMEM136 (11760407_x_at) / RFU CLDN22 /// WWC2 (11732394_at) / Fold change /veh CLDN22 /// WWC2 (11732394_at) / RFU HLA-DPB1 (11760878_x_at) / Fold change /veh HLA-DPB1 (11760878_x_at) / RFU SPINT1 (11716480_a_at) / Fold change /veh SPINT1 (11716480_a_at) / RFU GAP43 (11754022_s_at) / Fold change /veh GAP43 (11754022_s_at) / RFU A4GNT (11735810_at) / Fold change /veh A4GNT (11735810_at) / RFU PRB3 (11715151_x_at) / Fold change /veh PRB3 (11715151_x_at) / RFU TUBB4B (11761932_at) / Fold change /veh TUBB4B (11761932_at) / RFU CAPN14 (11732068_a_at) / Fold change /veh CAPN14 (11732068_a_at) / RFU TMCC2 (11721928_a_at) / Fold change /veh TMCC2 (11721928_a_at) / RFU IRGQ (11745062_a_at) / Fold change /veh IRGQ (11745062_a_at) / RFU FAM174B (11720279_a_at) / Fold change /veh FAM174B (11720279_a_at) / RFU TMPRSS4 (11748680_a_at) / Fold change /veh TMPRSS4 (11748680_a_at) / RFU FAM212B (11763350_a_at) / Fold change /veh FAM212B (11763350_a_at) / RFU PLEKHG5 (11743358_a_at) / Fold change /veh PLEKHG5 (11743358_a_at) / RFU ZSCAN30 (11745921_a_at) / Fold change /veh ZSCAN30 (11745921_a_at) / RFU CMKLR1 (11741424_a_at) / Fold change /veh CMKLR1 (11741424_a_at) / RFU LOC101060620 /// MAPK8IP1 (11723275_at) / Fold change /veh LOC101060620 /// MAPK8IP1 (11723275_at) / RFU SPTSSB (11747773_x_at) / Fold change /veh SPTSSB (11747773_x_at) / RFU PRSS12 (11739890_at) / Fold change /veh PRSS12 (11739890_at) / RFU BIN1 (11741810_x_at) / Fold change /veh BIN1 (11741810_x_at) / RFU WNT11 (11732464_a_at) / Fold change /veh WNT11 (11732464_a_at) / RFU C10orf10 (11716521_a_at) / Fold change /veh C10orf10 (11716521_a_at) / RFU C5orf56 (11738089_at) / Fold change /veh C5orf56 (11738089_at) / RFU CYB561 (11721691_x_at) / Fold change /veh CYB561 (11721691_x_at) / RFU ANKRD19P (11752326_a_at) / Fold change /veh ANKRD19P (11752326_a_at) / RFU OR2T12 /// OR2T33 /// OR2T8 (11738714_s_at) / Fold change /veh OR2T12 /// OR2T33 /// OR2T8 (11738714_s_at) / RFU VCAN (11748164_a_at) / Fold change /veh VCAN (11748164_a_at) / RFU JSRP1 (11732532_at) / Fold change /veh JSRP1 (11732532_at) / RFU KRTAP10-11 (11738290_x_at) / Fold change /veh KRTAP10-11 (11738290_x_at) / RFU MYO3A (11730013_a_at) / Fold change /veh MYO3A (11730013_a_at) / RFU EBF3 (11725865_a_at) / Fold change /veh EBF3 (11725865_a_at) / RFU CAMK2N1 (11719241_x_at) / Fold change /veh CAMK2N1 (11719241_x_at) / RFU C5orf56 (11738088_a_at) / Fold change /veh C5orf56 (11738088_a_at) / RFU OLFML3 (11715873_a_at) / Fold change /veh OLFML3 (11715873_a_at) / RFU LOC100653217 /// NTM (11731650_a_at) / Fold change /veh LOC100653217 /// NTM (11731650_a_at) / RFU MAPK11 (11762145_a_at) / Fold change /veh MAPK11 (11762145_a_at) / RFU FIZ1 (11724087_x_at) / Fold change /veh FIZ1 (11724087_x_at) / RFU OASL (11726364_x_at) / Fold change /veh OASL (11726364_x_at) / RFU SOX15 (11748057_x_at) / Fold change /veh SOX15 (11748057_x_at) / RFU CD79A (11719716_a_at) / Fold change /veh CD79A (11719716_a_at) / RFU HIST1H1D (11736915_at) / Fold change /veh HIST1H1D (11736915_at) / RFU CASKIN2 (11723855_a_at) / Fold change /veh CASKIN2 (11723855_a_at) / RFU LOC730098 (11760151_x_at) / Fold change /veh LOC730098 (11760151_x_at) / RFU OR4N2 (11742367_at) / Fold change /veh OR4N2 (11742367_at) / RFU PRRT2 (11749266_a_at) / Fold change /veh PRRT2 (11749266_a_at) / RFU SNX32 (11753110_a_at) / Fold change /veh SNX32 (11753110_a_at) / RFU CDHR5 (11726645_a_at) / Fold change /veh CDHR5 (11726645_a_at) / RFU RCAN1 (11760418_a_at) / Fold change /veh RCAN1 (11760418_a_at) / RFU FAM167A (11723789_a_at) / Fold change /veh FAM167A (11723789_a_at) / RFU FAM26E (11764081_at) / Fold change /veh FAM26E (11764081_at) / RFU ISYNA1 (11749810_s_at) / Fold change /veh ISYNA1 (11749810_s_at) / RFU ACY1 (11761880_at) / Fold change /veh ACY1 (11761880_at) / RFU 11764098_at / Fold change /veh 11764098_at / RFU SAMD14 (11745864_x_at) / Fold change /veh SAMD14 (11745864_x_at) / RFU NPB (11741838_a_at) / Fold change /veh NPB (11741838_a_at) / RFU TMPRSS6 (11731388_a_at) / Fold change /veh TMPRSS6 (11731388_a_at) / RFU KRTAP10-2 (11738614_at) / Fold change /veh KRTAP10-2 (11738614_at) / RFU ARHGAP8 /// PRR5-ARHGAP8 (11727945_x_at) / Fold change /veh ARHGAP8 /// PRR5-ARHGAP8 (11727945_x_at) / RFU KRTAP5-7 /// NADSYN1 (11734609_at) / Fold change /veh KRTAP5-7 /// NADSYN1 (11734609_at) / RFU RASL12 (11751679_a_at) / Fold change /veh RASL12 (11751679_a_at) / RFU CDKN2B (11736163_a_at) / Fold change /veh CDKN2B (11736163_a_at) / RFU PRF1 (11729649_at) / Fold change /veh PRF1 (11729649_at) / RFU, ZNF638 /// ZNF638-IT1 / Fold change vs veh, ZNF638 /// ZNF638-IT1 / RFU, PANK3 / Fold change vs veh, PANK3 / RFU, SH3YL1 / Fold change vs veh, SH3YL1 / RFU, ZEB2 / Fold change vs veh, ZEB2 / RFU, NRIP1 / Fold change vs veh, NRIP1 / RFU, PTTG1IP / Fold change vs veh, PTTG1IP / RFU, CAPN2 / Fold change vs veh, CAPN2 / RFU, MED14 / Fold change vs veh, MED14 / RFU, SNORA58 / Fold change vs veh, SNORA58 / RFU, C1orf63 / Fold change vs veh, C1orf63 / RFU, LRRFIP1 / Fold change vs veh, LRRFIP1 / RFU, NDUFAF7 / Fold change vs veh, NDUFAF7 / RFU, SLC12A2 / Fold change vs veh, SLC12A2 / RFU, IBTK / Fold change vs veh, IBTK / RFU, ESF1 / Fold change vs veh, ESF1 / Fold change vs veh, TMEM50B / RFU, TAOK1 / Fold change vs veh, TAOK1 / RFU, ACBD3 / Fold change vs veh, ACBD3 / RFU, TMA16 / Fold change vs veh, TMA16 / RFU, RWDD3 / Fold change vs veh, RWDD3 / RFU, BCAT1 / Fold change vs veh, BCAT1 / RFU, EDEM3 / Fold change vs veh, EDEM3 / RFU, TMEM33 / Fold change vs veh, TMEM33 / RFU, WDR75 / Fold change vs veh, WDR75 / RFU, AHCTF1 / Fold change vs veh, AHCTF1 / RFU, TFRC / Fold change vs veh, TFRC / RFU, ZDHHC17 / Fold change vs veh, ZDHHC17 / RFU, NOM1 / Fold change vs veh, NOM1 / RFU, ARL8B / Fold change vs veh, ARL8B / RFU, ZBTB11 / Fold change vs veh, ZBTB11 / RFU, TAMM41 / Fold change vs veh, TAMM41 / RFU, KIAA1704 /// LOC100996395 / Fold change vs veh, KIAA1704 /// LOC100996395 / RFU, ING1 / Fold change vs veh, ING1 / RFU, TRMT61B / Fold change vs veh, TRMT61B / RFU, FUBP3 / Fold change vs veh, FUBP3 / RFU, TP53 / Fold change vs veh, TP53 / RFU, TNKS2 / Fold change vs veh, TNKS2 / RFU, ZFP14 / Fold change vs veh, ZFP14 / RFU, ACTR2 / Fold change vs veh, ACTR2 / RFU, PPP3R1 / Fold change vs veh, PPP3R1 / RFU, PIK3R1 / Fold change vs veh, PIK3R1 / RFU, HNRNPA1 / Fold change vs veh, HNRNPA1 / RFU, RNF170 / Fold change vs veh, RNF170 / RFU, ZNF28 / Fold change vs veh, ZNF28 / RFU, RNGTT / Fold change vs veh, RNGTT / RFU, OGT / Fold change vs veh, OGT / RFU, BRD1 / Fold change vs veh, BRD1 / RFU, MARS / Fold change vs veh, MARS / RFU, ZNF655 / Fold change vs veh, ZNF655 / RFU, FAHD1 / Fold change vs veh, FAHD1 / RFU, BDP1 / Fold change vs veh, BDP1 / RFU, LRRCC1 / Fold change vs veh, LRRCC1 / RFU, ARID1A / Fold change vs veh, ARID1A / RFU, ZNF146 / Fold change vs veh, ZNF146 / RFU, ZNF330 / Fold change vs veh, ZNF330 / RFU, GPN3 / Fold change vs veh, GPN3 / RFU, C9orf123 / Fold change vs veh, C9orf123 / RFU, N4BP2L2 / Fold change vs veh, N4BP2L2 / RFU, ARFIP1 / Fold change vs veh, ARFIP1 / RFU, FAM179B / Fold change vs veh, FAM179B / RFU, BCL10 / Fold change vs veh, BCL10 / RFU, UHRF1BP1L / Fold change vs veh, UHRF1BP1L / RFU, BET1 / Fold change vs veh, BET1 / RFU, CNOT2 / Fold change vs veh, CNOT2 / RFU, ZNF268 / Fold change vs veh, ZNF268 / Fold change vs veh, ZNF507 / RFU, DGCR2 / Fold change vs veh, DGCR2 / RFU, WDSUB1 / Fold change vs veh, WDSUB1 / Fold change vs veh, HSP90B1 /// MIR3652 / RFU, ADSS / Fold change vs veh, ADSS / RFU, GK / Fold change vs veh, GK / RFU, ZNF148 / Fold change vs veh, ZNF148 / RFU, TAF9 / Fold change vs veh, TAF9 / RFU, SLC1A5 / Fold change vs veh, SLC1A5 / RFU, SLMO2 / Fold change vs veh, SLMO2 / RFU, ABCC4 / Fold change vs veh, ABCC4 / RFU, LOC101060439 /// RAP1B / Fold change vs veh, LOC101060439 /// RAP1B / RFU, RFX7 / Fold change vs veh, RFX7 / RFU, GTPBP10 / Fold change vs veh, GTPBP10 / RFU, CNEP1R1 / Fold change vs veh, CNEP1R1 / RFU, BIVM-ERCC5 /// ERCC5 / Fold change vs veh, BIVM-ERCC5 /// ERCC5 / RFU, ILF3 / Fold change vs veh, ILF3 / RFU 11762660_at / Fold change /veh 11762660_at / RFU VCAN (11757783_s_at) / Fold change /veh VCAN (11757783_s_at) / RFU DDX43 (11728927_at) / Fold change /veh DDX43 (11728927_at) / RFU KRT8 (11758188_x_at) / Fold change /veh KRT8 (11758188_x_at) / RFU NKD1 (11759106_at) / Fold change /veh NKD1 (11759106_at) / RFU SRD5A1 (11742802_a_at) / Fold change /veh SRD5A1 (11742802_a_at) / RFU TPSAB1 /// TPSB2 (11721975_s_at) / Fold change /veh TPSAB1 /// TPSB2 (11721975_s_at) / RFU GSTM3 (11746129_a_at) / Fold change /veh GSTM3 (11746129_a_at) / RFU IL23R (11737362_x_at) / Fold change /veh IL23R (11737362_x_at) / RFU TMEM51 (11727254_a_at) / Fold change /veh TMEM51 (11727254_a_at) / RFU PIWIL2 (11732686_x_at) / Fold change /veh PIWIL2 (11732686_x_at) / RFU ORM1 (11744905_x_at) / Fold change /veh ORM1 (11744905_x_at) / RFU CCDC152 (11743942_at) / Fold change /veh CCDC152 (11743942_at) / RFU ECM1 (11717891_a_at) / Fold change /veh ECM1 (11717891_a_at) / RFU IL23R (11748794_a_at) / Fold change /veh IL23R (11748794_a_at) / RFU TNFAIP8L3 (11732012_x_at) / Fold change /veh TNFAIP8L3 (11732012_x_at) / RFU MBOAT4 (11741988_at) / Fold change /veh MBOAT4 (11741988_at) / RFU 11764193_at / Fold change /veh 11764193_at / RFU TMEM53 (11763286_at) / Fold change /veh TMEM53 (11763286_at) / RFU MAGEB2 (11727129_at) / Fold change /veh MAGEB2 (11727129_at) / RFU TMEM200A (11744735_a_at) / Fold change /veh TMEM200A (11744735_a_at) / RFU CCDC152 (11751479_a_at) / Fold change /veh CCDC152 (11751479_a_at) / RFU FAM211A (11726209_a_at) / Fold change /veh FAM211A (11726209_a_at) / RFU RGS16 (11746705_a_at) / Fold change /veh RGS16 (11746705_a_at) / RFU VCAN (11755009_s_at) / Fold change /veh VCAN (11755009_s_at) / RFU RHOB (11743442_s_at) / Fold change /veh RHOB (11743442_s_at) / RFU RGS16 (11720943_a_at) / Fold change /veh RGS16 (11720943_a_at) / RFU RGS16 (11720944_at) / Fold change /veh RGS16 (11720944_at) / RFU, VPS4B / Fold change vs veh, VPS4B / RFU, CREB1 / Fold change vs veh, CREB1 / RFU, DNAJC13 / Fold change vs veh, DNAJC13 / RFU, GNAQ / Fold change vs veh, GNAQ / RFU, CDK5R1 / Fold change vs veh, CDK5R1 / RFU, ZRANB3 / Fold change vs veh, ZRANB3 / RFU, CUL4A / Fold change vs veh, CUL4A / RFU, CCNY / Fold change vs veh, CCNY / RFU, UFL1 / Fold change vs veh, UFL1 / RFU, COG3 / Fold change vs veh, COG3 / RFU, DIAPH2 / Fold change vs veh, DIAPH2 / RFU, SKA2 / Fold change vs veh, SKA2 / RFU, AFF3 / Fold change vs veh, AFF3 / RFU, LMF1 / Fold change vs veh, LMF1 / RFU, IPO11 / Fold change vs veh, IPO11 / RFU, DFFB / Fold change vs veh, DFFB / RFU, FOXP1 / Fold change vs veh, FOXP1 / RFU, CARD8 / Fold change vs veh, CARD8 / RFU, STRN3 / Fold change vs veh, STRN3 / RFU, ADK / Fold change vs veh, ADK / RFU, RASSF2 / Fold change vs veh, RASSF2 / RFU, WIPF1 / Fold change vs veh, WIPF1 / RFU, LARP1B / Fold change vs veh, LARP1B / RFU, RASA1 / Fold change vs veh, RASA1 / RFU, RB1 / Fold change vs veh, RB1 / RFU, PPFIA1 / Fold change vs veh, PPFIA1 / RFU, MAT2A / Fold change vs veh, MAT2A / RFU, CCT5 / Fold change vs veh, CCT5 / RFU, WDR92 / Fold change vs veh, WDR92 / RFU, CUX1 / Fold change vs veh, CUX1 / RFU, TTC7A / Fold change vs veh, TTC7A / RFU, TMEM135 / Fold change vs veh, TMEM135 / RFU, DEPTOR / Fold change vs veh, DEPTOR / RFU, CPM / Fold change vs veh, CPM / RFU, DNAJB6 / Fold change vs veh, DNAJB6 / RFU, CACNA2D3 / Fold change vs veh, CACNA2D3 / RFU, DTX4 / Fold change vs veh, DTX4 / RFU, TFCP2 / Fold change vs veh, TFCP2 / RFU, GMCL1 /// GMCL1P1 / Fold change vs veh, GMCL1 /// GMCL1P1 / RFU, AEBP2 / Fold change vs veh, AEBP2 / RFU, SNHG1 /// SNORD22 /// SNORD25 /// SNORD26 /// SNORD27 /// SNORD28 /// SNORD29 /// SNORD31 / Fold change vs veh, SNHG1 /// SNORD22 /// SNORD25 /// SNORD26 /// SNORD27 /// SNORD28 /// SNORD29 /// SNORD31 / Fold change (Aza/veh), C12orf56 (ProbeSet 11735607_a_at) / Fold change (ACY-1035/veh), C12orf56 (ProbeSet 11735607_a_at) / Fold change (Aza/veh), FGFR1OP (ProbeSet 11751329_s_at) / Fold change (ACY-1035/veh), FGFR1OP (ProbeSet 11751329_s_at) / Fold change (Aza/veh), VPS36 (ProbeSet 11739960_a_at) / Fold change (ACY-1035/veh), VPS36 (ProbeSet 11739960_a_at) / RFU SYPL1 (11715823_x_at) / Fold change /veh SYPL1 (11715823_x_at) / RFU IGFBP7 (11715501_s_at) / Fold change /veh IGFBP7 (11715501_s_at) / RFU REEP3 (11722064_at) / Fold change /veh REEP3 (11722064_at) / RFU IGLL1 (11728026_x_at) / Fold change /veh IGLL1 (11728026_x_at): dose or concentration left out as unconfirmed
Settings: ProbeSet 11728443_a_at; LIST B

## Nc1ccc(-c2cccs2)cc1NC(=O)c1ccc2c(c1)cc(C1CC1)n2CCN1CCOCC1 [ACY-1035]
  RFU, TAOK1: 54.83 RFU
